This note sets out measurements from patent US10738093B2, “Discovery of cationic nonribosomal peptides as Gram-negative antibiotics through global genome mining” (The Hong Kong University of Science and Technology, priority 2018, dated 2020).

Experiment [1] deals with K. pneumoniae NRRL-B-3521. The experiment is classed as cell-based, Klebsiella pneumoniae. As to conditions: NRRL-B-3521. The method, then: (§1) Minimum inhibitory concentration (MIC) was determined by broth microdilution according to CLSI guidelines. The test medium for most species was Mueller-Hinton broth (MHB). Bacteria were grown overnight to early stationary phase and adjusted in MHB to 5.0×10^5 colony-forming units per mL (c.f.u./mL) in the wells of 96-well microtiter plates, mixed with varying concentrations of test compounds and incubated at 37° C. for 24 h. […] MHBs containing 10% fetal bovine serum (Gibco), 21 mM MgCl, or 1.0 mg/ml LPS (lipopolysaccharides from Escherichia coli O55:B5, Sigma-Aldrich) were used to test their inhibitory effects.

A further experiment concerns E. coli ATCC 25922. Briefly: Neutropenic mouse thigh infection model. The experiment is classed as in vivo, Escherichia coli. The method, then:
In vivo activities of brevicidine and laterocidine were tested using the mouse thigh infection model. Animal studies were performed by Pharmacology Discovery Services Taiwan Ltd. (Taipei, Taiwan) in general accordance with standard guidelines on animal welfare in an AAALAC-accredited facility. The protocol was reviewed and approved by the Institutional Animal Care and Use Committee. Groups of five female specific-pathogen-free ICR (CD-1) mice weighing 22±2 g (˜5 weeks of age) were used. Animals were immunosuppressed with two intraperitoneal injections of cyclophosphamide, the first at 150 mg/kg 4 d before infection (day −4) and the second at 100 mg/kg 1 d before infection (day −1). On day 0, animals were inoculated intramuscularly (0.1 ml/thigh) in the right thigh with an E. coli ATCC 25922 suspension. Vehicle (10% DMSO, 1% Tween 80, 0.9% NaCl) and antibiotics were then subcutaneously injected 2 h and 8 h later. Due to limited amount of compounds 1-2, only one concentration of 1(30 mg/kg) or 2 (15 mg/kg) was used in this study. At 26 h after inoculation, animals were euthanized by CO2 asphyxiation before the muscle of the right thigh was harvested from each test animal. The removed muscle was homogenized in 5 mL of PBS, pH 7.4, with a polytron homogenizer. Homogenates in the amount of 0.1 mL were used for serial tenfold dilutions and plated onto a nutrient agar medium for colony count (c.f.u./g) determination.

Experiment [2] has as its system Saccharomyces cerevisiae VL-48. Briefly: MIC, Saccharomyces cerevisiae. In kind it is cell-based. The method, then: as §1

Converted amounts (≈) assume the structure as drawn. Positions of bridges follow the written chain, without caps; N, C: chain ends. Non-standard residues stand in square brackets, D forms with d. Residues, ends and D or L forms follow the SMILES beside them. ξ: configuration not given here. *: point of attachment. Hexanoyl(4ξ-Me) = CCC(C)CCC(=O)*; dOrn = NCCC[C@@H](N)C(=O)O; Orn = NCCC[C@H](N)C(=O)O

The term MIC denotes the lowest concentration found to suppress growth. A lower MIC goes with greater potency.

Take `CCC(C)CCC(=O)N[C@H](CC(N)=O)C(=O)N[C@H](Cc1ccc(O)cc1)C(=O)N[C@H](Cc1c[nH]c2ccccc12)C(=O)N[C@H](CCCN)C(=O)N[C@@H](CCCN)C(=O)NCC(=O)N[C@H](CCCN)C(=O)N[C@@H](Cc1c[nH]c2ccccc12)C(=O)N[C@@H]1C(=O)N[C@@H]([C@@H](C)CC)C(=O)NCC(=O)N[C@H](CO)C(=O)O[C@@H]1C` (stereo partly drawn) [Compound 1, 4-Methyl-Hexanoyl-D-Asn-D-Tyr-D-Trp-D-Orn-Orn-Gly-D-Orn-Trp-Thr-Ile-Gly-Ser (cyclized via lactone formation between Thr and the C-terminus)] ({Hexanoyl(4ξ-Me)}-[dN][dY][dW][dOrn][Orn]G[dOrn]WTIG[dS]; ester 9-C): the MIC was 4 µg/mL (≈ 2.63 µM) in experiment [1] and more than 64 µg/mL in experiment [2] (Saccharomyces cerevisiae). Also, in the experiment on E. coli ATCC 25922 (brevicidine 30 mg/kg or laterocidine 15 mg/kg, 2 times, after 26 h), the “bactericidal efficacy in mouse thigh infection (viable bacteria)” value is reported as “reduced numbers of viable bacteria”. In addition, in the experiment with E. coli ATCC 25922 (mice, 30 mg/kg subcutaneously, two doses, at 24 h), the “reduction of c.fu. in thigh compared to the vehicle control” value is recorded as 5 log10. Moreover, in experiment [2] (Table 2, Saccharomyces cerevisiae VL-48), the “MIC Sc” value is “ND (ND >64 μg/ml)”.
